Like-named read-outs stand apart in the source and are kept apart here.
Tests used:
[1] = tested on: Pseudomonas aeruginosa PA14; assay: Static peg assay for prevention of biofilm formation (Calgary device, crystal violet); format: cell-based
Method: (§1) Evaluation of the biofilm inhibitory activity of some substituted 2-amino-1H-imidazoles of the invention was carried out by growing up biofilms of S. Typhimurium ATCC14028 or SL1344 or Pseudomonas aeruginosa PA14 in the presence of different concentrations (1/2 dilution series) of biofilm inhibitors, by using the Calgary biofilm device. After an incubation period of 24 hours at 25° C. or 37° C. or 48 hours at 16° C. the biofilms were visualized by crystal violet staining. In the next step the stain was extracted from the biofilm with 30% acetic acid. The absorbance of the resolubilized stain at 570 nm is a measure of the amount of biofilm formed.
The device used for Pseudomonas aeruginosa biofilm formation is the same platform carrying polystyrene pegs as described above for Salmonella Typhimurium.
Two-fold serial dilutions of the compounds in 100 μl liquid broth per well were prepared in the microtiter plate. Subsequently, an overnight culture of P. aeruginosa PA14 (grown up in TSB medium) was diluted 1:100 into liquid broth and 100 μl was added to each well of the microtiter plates, resulting in a total amount of 200 μl medium per well. The pegged lid was placed on the microtiter plate and the plate was incubated for 24 hours at 25° C., 30° C. or 37° C. without shaking. During this incubation period biofilms were formed on the surface of the pegs. The liquid broth used for the tests at 25° C. was TSB 1/20. The tests at 37° C. were performed in CFA and/or LBNS broth. During incubation at 30° C. and 37° C. the plates were placed in a humidity controlled container to prevent evaporation of the growth medium. Quantification of biofilm formation was performed similarly as described previously for the S. Typhimurium biofilm assays.
as §1, with “imidazo[1,2-a]pyrimidinium bromide salts” for “2-amino-1H-imidazoles”
as §1, with “substituted imidazo[1,2-a]-pyrimidinium bromide and perchlorate salts produced according to examples 3 and 5” for “substituted 2-amino-1H-imidazoles of the invention”, “C.” for “C. or 37° C. or 48 hours at 16° C.”, “nm was taken as” for “nm is”

[2] = tested on: S. Typhimurium ATCC14028; assay: as above; format: cell-based, Salmonella Typhimurium
Summary of the method: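 Calgary 96-peg device, ca. 10^6 cells of ATCC14028 per well in TSB 1/20 for 24 h at 25° C (or 48 h at 16° C, medium and compound renewed at 24 h), or in CFA broth for 24 h at 37° C, static, with two-fold compound dilutions. Crystal violet stain, acetic acid extraction, OD570. IC50 from 2–3 independent experiments.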

[3] = 25° C., Table 16, read-out: P. aeruginosa IC50 (biofilm formation)
[4] = 25° C., 24 hours, Table 15, read-out: (1) IC50 (biofilm inhibition)
[5] = 25° C., Table 16, read-out: S. Typhimurium IC50 (biofilm formation)
[6] = Table 21, P. aeruginosa PA14, 25° C., read-out: P. aeruginosa IC50 (biofilm formation)
[7] = Table 21, S. Typhimurium ATCC14028, 25° C., read-out: S. Typhimurium IC50 (biofilm formation)
[8] = 25° C., 24 hours, Table 15, read-out: (2) IC50 (biofilm inhibition)
[9] = 25° C., Table 18, read-out: P. aeruginosa IC50 (biofilm formation)
[10] = 25° C., Table 18, read-out: S. Typhimurium IC50 (biofilm formation)
[11] = P. aeruginosa PA14, 25° C., read-out: P. aeruginosa IC50 (biofilm formation)
[12] = S. Typhimurium ATCC 14028, 25° C., read-out: S. Typhimurium IC50 (biofilm formation)

SMILES: CCCCCCCCCCN1c2nccc[n+]2CC1(O)c1ccc([N+](=O)[O-])cc1 (stereo not drawn) [Compound 36]
- IC50 [1, 3]: 22.3 µM
- IC50 [2, 4]: 9.95 µM
- IC50 [2, 5]: 9.9 µM

SMILES: Clc1ccc(-c2cnc(NC3CCCC3)[nH]2)cc1Cl [Compound 121]
- IC50 [1, 6]: 7.9 µM
- IC50 [2, 7]: 5.7 µM

SMILES: CCCCCN1c2nccc[n+]2CC1(O)c1ccc(Cl)cc1 (racemic) [Compound 18]
- IC50 [1, 3]: 164 µM
- IC50 [2, 5]: 32.6 µM

SMILES: CCCCCCCCCCCCN1c2nccc[n+]2CC1(O)c1ccc(Cl)cc1 (racemic) [Compound 25]
- IC50 [1, 8]: 119 µM
- IC50 [1, 3]: > 800 µM
- IC50 [2, 4]: 122 µM
- IC50 [2, 5]: 122 µM

SMILES: CCCCCCN1c2nccc[n+]2CC1(O)c1ccccc1 (racemic) [Compound 6]
- IC50 [1, 8]: 3.13 µM
- IC50 [1, 3]: 406 µM
- IC50 [2, 4]: 102 µM
- IC50 [2, 5]: 102 µM

SMILES: CCCCCCCC[n+]1c(-c2cccc3ccccc23)cn2cccnc21.[O-][Cl+3]([O-])([O-])[O-] [1-octyl-2-(1-naphthalenyl)-imidazo[1,2-a]-pyrimidin-1-ium perchlorate]
- IC50 ([1]; Pseudomonas aeruginosa, PA14, 24 h, read-out: (2) IC50 (biofilm inhibition)): 6.83 µM
- IC50 ([2]; Salmonella enterica, 24 h, read-out: (1) IC50 (biofilm inhibition)): ~6.6 µM

SMILES: CCCCCCN1c2nccc[n+]2CC1(O)c1ccc(Cl)cc1 (racemic) [Compound 19]
- IC50 [1, 8]: 20.2 µM
- IC50 [1, 3]: 79.8 µM
- IC50 [2, 4]: 13.7 µM
- IC50 [2, 5]: 13.7 µM

SMILES: OC1(c2ccc(Cl)cc2)C[n+]2cccnc2N1C1CCCC1 (stereo not drawn) [Compound 63]
- IC50 [1, 9]: 163 µM
- IC50 [2, 10]: 41.8 µM

SMILES: OC1(c2ccccc2)C[n+]2cccnc2N1C1CCCCC1 (stereo not drawn) [Compound 58]
- IC50 [1, 9]: 87 µM
- IC50 [2, 10]: 139 µM

SMILES: Clc1ccc(-c2cnc(NC3CCCC3)[nH]2)cc1 [Compound 118]
- IC50 [1, 6]: 13.5 µM
- IC50 [2, 7]: 4.4 µM

SMILES: CCCCCCCCN1c2nccc[n+]2CC1(O)c1ccc(OC)cc1 (stereo not drawn) [Compound 46]
- IC50 [1, 8]: 13.6 µM
- IC50 [1, 3]: 90.2 µM
- IC50 [2, 4]: 10.5 µM
- IC50 [2, 5]: 10.5 µM

SMILES: CC(C)CN1c2nccc[n+]2CC1(O)c1ccccc1 (racemic) [Compound 4]
- IC50 [1, 3]: 289 µM
- IC50 [2, 5]: 131 µM

SMILES: CCCCCCCCNc1ncc(-c2ccc(Br)cc2)[nH]1 [Compound 105]
- IC50 [1, 11]: > 800 µM
- IC50 [2, 12]: 1.9 µM

SMILES: CC(C)CN1c2nccc[n+]2CC1(O)c1ccc(Cl)cc1 (racemic) [Compound 17]
- IC50 [1, 3]: 83.4 µM
- IC50 [2, 5]: 31.4 µM

SMILES: CCCCCCCCN1c2nccc[n+]2CC1(O)c1ccc(Cl)c(Cl)c1 (stereo not drawn) [Compound 49]
- IC50 [1, 8]: ~12.3 µM
- IC50 [1, 3]: 11.6 µM
- IC50 [2, 4]: 7.09 µM
- IC50 [2, 5]: 7.1 µM

SMILES: CNc1nc(-c2ccc([N+](=O)[O-])cc2)c[nH]1 [Compound 91]
- IC50 [1, 11]: 56.1 µM
- IC50 [2, 12]: 170 µM

SMILES: CCCCCCCCNc1ncc(-c2ccc(OC)cc2)[nH]1 [Compound 108]
- IC50 [1, 11]: > 800 µM
- IC50 [2, 12]: ~400 µM

SMILES: CCCCNc1nc(-c2ccccc2)c[nH]1 [Compound 83]
- IC50 [1, 11]: 31.8 µM
- IC50 [2, 12]: 25.3 µM

SMILES: CCCCNc1ncc(-c2ccc(F)cc2)[nH]1 [Compound 98]
- IC50 [1, 11]: 10.8 µM
- IC50 [2, 12]: 15.5 µM

SMILES: OC1(c2ccc(Cl)cc2)C[n+]2cccnc2N1C1CCCCCCC1 (stereo not drawn) [Compound 66]
- IC50 [1, 8]: 15.6 µM
- IC50 [1, 9]: 22.7 µM
- IC50 [2, 4]: 12.6 µM
- IC50 [2, 10]: 12.6 µM

SMILES: CCCNc1ncc(-c2ccc(Cl)c(Cl)c2)[nH]1 [Compound 109]
- IC50 [1, 11]: 27.7 µM
- IC50 [2, 12]: 10.9 µM

SMILES: Clc1ccc(-c2cnc(NC3CCCCC3)[nH]2)cc1 [Compound 122]
- IC50 [1, 6]: ~25 µM
- IC50 [2, 7]: > 800 µM
